Experiment [1] concerns the target T1, recombinant, purified human Caspase-3 (Homo sapiens, UniProt P42574).
T1 sequence (P42574 29-175 limits assumed): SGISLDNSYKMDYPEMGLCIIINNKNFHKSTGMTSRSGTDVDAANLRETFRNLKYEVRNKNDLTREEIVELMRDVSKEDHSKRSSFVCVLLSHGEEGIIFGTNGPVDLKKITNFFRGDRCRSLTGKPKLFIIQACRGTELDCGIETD
T1 sequence (P42574 176-277 limits assumed): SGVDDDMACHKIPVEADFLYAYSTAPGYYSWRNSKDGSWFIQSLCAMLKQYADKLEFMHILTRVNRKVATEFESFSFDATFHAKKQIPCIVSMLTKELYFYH
The experiment in a line: Caspase-3 enzyme assay, fluorogenic substrate cleavage. It counts as biochemical. The settings on record: second order rate constant of enzyme inactivation; substrate Acetyl-Asp-Glu-Val-Asp-amino-4-methylcoumarin. The text has this: (§1) The assays for caspase inhibition are based on the cleavage of a fluorogenic substrate by recombinant, purified human Caspases -1, -3, -7 or -8. The assays are run in essentially the same way as those reported by Garcia-Calvo et al. (J. Biol. Chem. 273 (1998), 32608-32613), using a substrate specific for each enzyme. The substrate for Caspase-1 is Acetyl-Tyr-Val-Ala-Asp-amino-4-methylcoumarin. The substrate for Caspases -3, -7 and -8 is Acetyl-Asp-Glu-Val-Asp-amino-4-methylcoumarin.
(§2) The observed rate of enzyme inactivation at a particular inhibitor concentration, kobs, is computed by direct fits of the data to the equation derived by Thornberry et al. (Biochemistry 33 (1994), 3943-3939) using a nonlinear least-squares analysis computer program (PRISM 2.0; GraphPad software). To obtain the second order rate constant, kinact, kobs values are plotted against their respective inhibitor concentrations and kinact values are subsequently calculated by computerized linear regression.

The target of experiment [2] is T2, recombinant, purified human Caspase-1 (Homo sapiens, UniProt P29466).
T2 sequence (P29466 120-297 limits assumed): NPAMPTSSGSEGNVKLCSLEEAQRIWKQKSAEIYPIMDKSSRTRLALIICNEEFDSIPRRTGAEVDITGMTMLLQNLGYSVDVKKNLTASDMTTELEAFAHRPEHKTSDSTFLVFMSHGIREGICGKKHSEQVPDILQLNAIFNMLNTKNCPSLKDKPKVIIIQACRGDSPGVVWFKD
T2 sequence (P29466 317-404 limits assumed): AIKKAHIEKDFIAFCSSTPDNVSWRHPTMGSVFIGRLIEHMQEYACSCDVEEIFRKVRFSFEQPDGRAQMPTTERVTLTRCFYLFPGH
The experiment in a line: Caspase-1 enzyme assay, fluorogenic substrate cleavage. The format is biochemical. To be noted: second order rate constant of enzyme inactivation; substrate Acetyl-Tyr-Val-Ala-Asp-amino-4-methylcoumarin.
Excerpt: as §1, §2

For experiment [3], the target named is T3, recombinant, purified human Caspase-7 (Homo sapiens, UniProt P55210).
T3 sequence (P55210 24-198 limits assumed): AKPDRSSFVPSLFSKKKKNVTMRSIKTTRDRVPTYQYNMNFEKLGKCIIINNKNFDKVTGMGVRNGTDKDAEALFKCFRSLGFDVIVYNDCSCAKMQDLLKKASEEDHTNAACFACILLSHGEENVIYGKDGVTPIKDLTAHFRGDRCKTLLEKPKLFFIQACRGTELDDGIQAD
T3 sequence (P55210 207-303 limits assumed): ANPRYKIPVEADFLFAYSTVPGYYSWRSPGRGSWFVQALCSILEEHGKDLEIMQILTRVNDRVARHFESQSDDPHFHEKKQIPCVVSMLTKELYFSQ
The experiment in a line: Caspase-7 enzyme assay, fluorogenic substrate cleavage. The format is biochemical. To be noted: second order rate constant of enzyme inactivation; substrate Acetyl-Asp-Glu-Val-Asp-amino-4-methylcoumarin.
Excerpt: as §1, §2

For experiment [4], the system named is IL-1β secretion from peripheral blood mononuclear cells (PBMC). The experiment in a line: Inhibition of IL-1β secretion from PBMC. The format is cell-based. The settings on record: human PBMC, LPS 50 ng/ml, 16-18 h, mature IL-1β in supernatant. Here is the method: Processing of pre-IL-1β by caspase-1 can be measured in cell culture using a variety of cell sources. Human PBMC obtained from healthy donors provides a mixed population of lymphocyte and mononuclear cells that produce a spectrum of interleukins and cytokines in response to many classes of physiological stimulators.
The test compound is dissolved in Dimethyl Sulphoxide (DMSO, Sigma #D-2650) to give a 100 mM stock solution. This is diluted in complete medium consisting of RPMI containing 10% heat inactivated FCS (Gibco BRL #10099-141), 2 mM L-Glutamine (Sigma, #G-7513), 100 U penicillin and 100 μg/ml streptomycin (Sigma #P-7539). The final concentration range of test compound is from 100 μM down to 6 nM over eight dilution steps. The highest concentration of test compound is equivalent to 0.1% DMSO in the assay.
Human PBMC are isolated from Buffy Coats obtained from the blood bank using centrifugation on Ficoll-Paque leukocyte separation medium (Amersham, #17-1440-02) and the cellular assay is performed in a sterile 96 well flat-bottomed plate (Nunc). Each well contains 100 μl of the cell suspension, 1×10^5 cells, 50 μl of compound dilutions and 50 μl of LPS (Sigma #L-3012) at 50 ng/ml final concentration. Controls consist of cells +/− LPS stimulation and a serial dilution of DMSO diluted in the same way as compound. […]

The target in experiment [5] is recombinant, purified human Caspase-8 (Homo sapiens, UniProt Q14790). The experiment in a line: Caspase-8 enzyme assay, fluorogenic substrate cleavage. It counts as biochemical. The settings on record: second order rate constant of enzyme inactivation; substrate Acetyl-Asp-Glu-Val-Asp-amino-4-methylcoumarin.
Chain of recombinant, purified human Caspase-8 (Q14790 217-374 limits assumed): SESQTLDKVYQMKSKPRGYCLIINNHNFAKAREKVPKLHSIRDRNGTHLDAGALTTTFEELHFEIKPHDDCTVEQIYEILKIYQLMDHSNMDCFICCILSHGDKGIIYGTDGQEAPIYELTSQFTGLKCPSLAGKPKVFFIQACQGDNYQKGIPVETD
Chain of recombinant, purified human Caspase-8 (Q14790 385-479 limits assumed): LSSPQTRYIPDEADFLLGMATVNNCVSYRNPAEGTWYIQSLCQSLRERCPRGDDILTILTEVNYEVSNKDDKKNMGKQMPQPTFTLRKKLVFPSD
Excerpt: as §1, §2

Experiment [6] has as its system Jurkat E6.1 cells. The experiment in a line: Anti-Fas induced apoptosis assay. To be noted: Homo sapiens, anti-Fas antibody CH-11 10 ng/ml, 16-18 hrs, DNA fragmentation. The format is cell-based. The text has this:
Cellular apoptosis may be induced by the binding of Fas ligand (FasL) to its receptor, CD95 (Fas). CD95 is one of a family of related receptors, known as death receptors, which can trigger apoptosis in cells via activation of the caspase enzyme cascade. The process is initiated by the binding of the adapter molecule FADD/MORT-1 to the cytoplasmic domain of the CD-95 receptor-ligand complex. Caspase-8 then binds FADD and becomes activated, initiating a cascade of events that involve the activation of downstream caspases and subsequent cellular apoptosis. […]
Jurkat E6.1 cells are cultured in complete medium consisting of RPMI-1640 (Sigma No)+10% foetal calf serum (Gibco BRL No. 10099-141)+2 mM L-glutamine (Sigma No. G-7513). […] The cells are counted and the density adjusted to 2×10^6 cells/ml with complete medium. […]
Apoptosis of the cells is measured by the quantitation of DNA fragmentation using a ‘Cell Death Detection Assay’ from Boehringer-Mannheim, No. 1544 675. […] OD405 nm is measured 20 minutes after addition of the final substrate in a SPECTRAmax Plus plate reader (Molecular Devices). OD405 nm is plotted versus compound concentration and the IC50 values for the compounds are calculated using the curve-fitting program SOFTmax Pro (Molecular Devices) using the four parameter fit option.

`O=C(O)CC(NC(=O)[C@@H]1CCc2nc3ccccc3c(=O)n21)C(=O)CF` (stereo partly drawn) [Example 1, [3S/R(1S)]-3-(2,3-Dihydro-1H-9-oxo-pyrrolo[2,1-b]quinazolin-1-carboxamido)-5-fluoro-4-oxo-pentanoic acid]: the “Kinact, Caspase-3 Activity” value in experiment [1] was found to be 160500 M⁻¹ s⁻¹.

For `O=C(O)CC(NC(=O)[C@@H]1CCCc2nc3ccccc3c(=O)n21)C(=O)CF` (stereo partly drawn) [Example 2, [3S/R(9S)]-5-Fluoro-4-oxo-3-(11-oxo-6,7,8,9-tetrahydro-11H-pyrido[2,1-b]quinazolin-9-carboxamido)-pentanoic acid], the “Kinact, Caspase-1 Activity” value in experiment [2] was found to be 455000 M⁻¹ s⁻¹.

In the case of `O=C(O)CC(NC(=O)[C@@H]1CCc2cc3ccccc3c(=O)n21)C(=O)CF` (stereo partly drawn) [Example 3, [3S/R(3S)]-3-(2,3-Dihydro-1H-5-oxo-pyrrolo[1,2-b]isoquinolin-3-carboxamido)-5-fluoro-4-oxo-pentanoic acid], the “Kinact, Caspase-7 Activity” value in experiment [3] is 229000 M⁻¹ s⁻¹.

In general, IC50 refers to the concentration that gives 50% inhibition. Read a low IC50 as inhibition by little substance. `O=C(O)CC(NC(=O)[C@@H]1CCCc2cc3ccccc3c(=O)n21)C(=O)CF` (stereo partly drawn) [Example 4, [3S/R(4S)]-5-Fluoro-4-oxo-3-(6-oxo-1,2,3,4-tetrahydro-6H-benzo[b]quinolizin-4-carboxamido)-pentanoic acid] showed an IC50 in experiment [4] of 0.569 µM.

In the case of `O=C(O)CC(NC(=O)[C@@H]1CCCn2c(=O)c3ccccc3c(=O)n21)C(=O)CF` (stereo partly drawn) [Example 5, [3S/R(1S)]-3-(6,11-Dioxo-1,2,3,4-tetrahydro-pyridazino[1,2-b]phthalazin-1-carboxamido)-5-fluoro-4-oxo-pentanoic acid], in experiment [5], the “Caspase-8 Kinact” value came out at 82000 M⁻¹ s⁻¹.

The compound `O=C(O)CC(NC(=O)[C@@H]1CCCn2c(=O)c3nccnc3c(=O)n21)C(=O)CF` (stereo partly drawn) [Example 6, [3S/R(5S)]-(9,10-Dioxo-5,6,7,8,9,10-hexahydro-1,4,8a,10a-tetraazaanthracene-5-carboxamido)-5-fluoro-4-oxo-3-pentanoic acid] came in with an IC50 in experiment [6] of 0.168 µM.

Source of the values: patent publication US7968716B2, “Caspase inhibitors and uses thereof” (Vertex Pharmaceuticals Incorporated, priority 2000, dated 2011).
